Here are results for eight compounds from ChEMBL document CHEMBL4330088, “Targeting the immunity protein kinases for immuno-oncology” (Eur J Med Chem, 2019).

The target of data set [1] is T1, Interleukin-1 receptor-associated kinase 4 (Homo sapiens, UniProt Q9NWZ3).
T1 sequence (Q9NWZ3 whole entry): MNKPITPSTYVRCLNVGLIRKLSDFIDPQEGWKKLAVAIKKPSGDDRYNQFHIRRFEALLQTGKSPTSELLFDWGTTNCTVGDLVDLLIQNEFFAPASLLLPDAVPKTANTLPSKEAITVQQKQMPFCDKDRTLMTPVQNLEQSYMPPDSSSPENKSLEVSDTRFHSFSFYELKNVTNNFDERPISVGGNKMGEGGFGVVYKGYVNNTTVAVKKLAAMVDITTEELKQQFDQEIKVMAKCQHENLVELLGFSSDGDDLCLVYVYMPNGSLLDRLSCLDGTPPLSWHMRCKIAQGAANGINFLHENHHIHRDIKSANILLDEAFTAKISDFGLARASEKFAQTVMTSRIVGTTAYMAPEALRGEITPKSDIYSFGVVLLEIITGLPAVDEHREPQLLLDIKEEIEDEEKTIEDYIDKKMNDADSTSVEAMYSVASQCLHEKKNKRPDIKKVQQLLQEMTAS
As to the kind of experiment: Inhibition of IRAK4 (unknown origin).

The next data set deals with PI3K p110 beta/p85 alpha (Homo sapiens, UniProt P42338). Description: Inhibition of human full length recombinant N-terminal His-tagged PI3Kbeta/p85alpha expressed in baculovirus infected Sf21 insect cells.
Data set [2] concerns the target Phosphatidylinositol 4,5-bisphosphate 3-kinase catalytic subunit gamma isoform (Homo sapiens, UniProt P48736). As to the kind of experiment: Inhibition of PI3Kgamma (unknown origin).
The species entered for data set [3] is Homo sapiens. Description: Selectivity ratio of IC50 for PI3Kdelta (unknown origin) to IC50 for human N-terminal His-tagged PI3Kalpha/p85alpha.
Data set [4] is filed under the species Homo sapiens. As to the kind of experiment: Selectivity ratio of IC50 for PI3Kdelta (unknown origin) to IC50 for PI3Kgamma (unknown origin).
For data set [5], the target named is PI3-kinase p110-alpha/p85-alpha (Homo sapiens, UniProt P42336). Description: Inhibition of human N-terminal His-tagged PI3Kalpha/p85alpha expressed in Spodoptera frugiperda using phosphatidylinositol as substrate.
For data set [6], the species on record is Homo sapiens. Description: Selectivity ratio of IC50 for PI3Kdelta (unknown origin) to IC50 for human full length recombinant N-terminal His-tagged PI3Kbeta/p85alpha.
Data set [7] is described as follows: Half life of compound in human PBMC. It is filed as ADME, cell-based.
In data set [8] the target is MAP kinase-interacting serine/threonine-protein kinase 1/2 (Homo sapiens) (UniProt Q9HBH9+Q9BUB5). Description: Inhibition of MNK in human PBMC assessed as reduction in eIF4E phosphorylation at 200 mg after 24 hrs relative to control.
Data set [9] addresses T2, Tyrosine-protein kinase JAK3 (Homo sapiens, UniProt P52333).
T2 sequence (P52333 whole entry): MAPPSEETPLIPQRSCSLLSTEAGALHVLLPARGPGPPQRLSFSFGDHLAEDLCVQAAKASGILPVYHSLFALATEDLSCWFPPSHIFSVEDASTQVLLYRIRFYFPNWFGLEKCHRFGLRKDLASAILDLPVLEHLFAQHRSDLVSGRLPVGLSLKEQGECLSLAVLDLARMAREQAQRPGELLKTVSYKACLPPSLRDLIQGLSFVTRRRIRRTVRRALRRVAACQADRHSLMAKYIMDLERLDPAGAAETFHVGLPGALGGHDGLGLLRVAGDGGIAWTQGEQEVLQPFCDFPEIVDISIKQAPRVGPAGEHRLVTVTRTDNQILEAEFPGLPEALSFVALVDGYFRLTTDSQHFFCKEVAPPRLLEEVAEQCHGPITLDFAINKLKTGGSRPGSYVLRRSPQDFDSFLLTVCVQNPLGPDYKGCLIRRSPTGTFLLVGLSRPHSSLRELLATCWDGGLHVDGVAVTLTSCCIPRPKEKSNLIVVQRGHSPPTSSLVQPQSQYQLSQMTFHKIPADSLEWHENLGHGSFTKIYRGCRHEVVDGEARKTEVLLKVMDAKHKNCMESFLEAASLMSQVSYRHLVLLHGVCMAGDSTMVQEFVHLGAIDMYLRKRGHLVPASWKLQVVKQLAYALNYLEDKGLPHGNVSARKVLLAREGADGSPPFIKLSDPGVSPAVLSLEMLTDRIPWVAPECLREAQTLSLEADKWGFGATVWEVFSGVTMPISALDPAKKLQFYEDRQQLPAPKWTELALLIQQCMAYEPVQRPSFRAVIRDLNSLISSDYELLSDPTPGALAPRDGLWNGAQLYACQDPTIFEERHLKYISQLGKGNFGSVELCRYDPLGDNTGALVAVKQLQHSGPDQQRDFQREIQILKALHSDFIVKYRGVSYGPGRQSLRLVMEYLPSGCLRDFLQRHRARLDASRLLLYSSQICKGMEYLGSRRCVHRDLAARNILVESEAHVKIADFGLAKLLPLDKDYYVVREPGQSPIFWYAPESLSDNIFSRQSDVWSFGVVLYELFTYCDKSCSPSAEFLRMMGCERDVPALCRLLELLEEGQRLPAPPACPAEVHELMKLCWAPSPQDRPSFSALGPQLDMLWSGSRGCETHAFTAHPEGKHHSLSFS
Description: Inhibition of JAK3 in human Jurkat cells assessed as reduction in IFN-alpha stimulated JAK3 phosphorylation by […] Western blot analysis. It is filed as cell-based.

Data set [10] addresses Tyrosine-protein kinase JAK1 (Homo sapiens, UniProt P23458). As to the kind of experiment: Inhibition of JAK1 in human Jurkat cells assessed as reduction in IFN-alpha stimulated JAK1 phosphorylation by […] Western blot analysis. It is filed as cell-based.
Data set [11] addresses Non-receptor tyrosine-protein kinase TYK2 (Homo sapiens, UniProt P29597). Description: Inhibition of TYK2 in human Jurkat cells assessed as reduction in IFN-alpha stimulated TYK2 phosphorylation by […] Western blot analysis. It is filed as cell-based. In general terms: In western blotting, separated proteins are transferred to a membrane and probed.

Usually IC50 stands for the midpoint of a concentration-inhibition curve. Usually half-life stands for the time needed for the level to fall by half in the phase considered. Low readings indicate rapid decline, high ones slow decline. As usually defined, the inhibition is the share of the control response that was lost under treatment.

The structures appear in SMILES notation.

Phosphatidylinositol 4,5-bisphosphate 3-kinase catalytic subunit gamma isoform, sequence (P48736 whole entry, canonical isoform): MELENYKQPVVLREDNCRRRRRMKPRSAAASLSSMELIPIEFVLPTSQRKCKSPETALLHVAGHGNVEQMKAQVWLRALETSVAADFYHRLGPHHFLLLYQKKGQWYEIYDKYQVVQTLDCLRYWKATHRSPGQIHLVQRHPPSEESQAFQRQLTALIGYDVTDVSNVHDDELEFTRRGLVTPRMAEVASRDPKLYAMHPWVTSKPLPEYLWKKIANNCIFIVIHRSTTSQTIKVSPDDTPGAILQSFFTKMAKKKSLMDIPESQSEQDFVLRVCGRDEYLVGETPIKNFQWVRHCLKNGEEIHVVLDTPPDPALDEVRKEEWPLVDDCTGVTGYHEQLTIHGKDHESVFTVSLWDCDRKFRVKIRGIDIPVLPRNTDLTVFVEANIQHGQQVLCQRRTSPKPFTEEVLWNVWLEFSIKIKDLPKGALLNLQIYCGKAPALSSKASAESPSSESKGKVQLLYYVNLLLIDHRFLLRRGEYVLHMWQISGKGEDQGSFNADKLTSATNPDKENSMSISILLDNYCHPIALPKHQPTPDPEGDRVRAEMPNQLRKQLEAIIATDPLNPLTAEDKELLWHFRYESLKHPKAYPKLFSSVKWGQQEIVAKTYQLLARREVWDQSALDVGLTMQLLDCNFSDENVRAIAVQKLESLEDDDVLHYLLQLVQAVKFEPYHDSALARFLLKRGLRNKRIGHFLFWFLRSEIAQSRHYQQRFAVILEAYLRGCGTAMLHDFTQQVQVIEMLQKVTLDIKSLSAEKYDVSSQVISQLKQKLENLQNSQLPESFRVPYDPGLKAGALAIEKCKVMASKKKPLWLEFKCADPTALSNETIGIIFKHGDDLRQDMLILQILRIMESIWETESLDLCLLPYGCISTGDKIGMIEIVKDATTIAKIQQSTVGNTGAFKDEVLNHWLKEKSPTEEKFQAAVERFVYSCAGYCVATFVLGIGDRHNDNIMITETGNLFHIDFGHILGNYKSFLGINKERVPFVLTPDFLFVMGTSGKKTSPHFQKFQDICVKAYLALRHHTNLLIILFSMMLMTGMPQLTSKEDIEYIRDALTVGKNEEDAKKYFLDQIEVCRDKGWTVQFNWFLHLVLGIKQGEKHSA
PI3K p110 beta/p85 alpha, sequence (P27986 whole entry, canonical isoform): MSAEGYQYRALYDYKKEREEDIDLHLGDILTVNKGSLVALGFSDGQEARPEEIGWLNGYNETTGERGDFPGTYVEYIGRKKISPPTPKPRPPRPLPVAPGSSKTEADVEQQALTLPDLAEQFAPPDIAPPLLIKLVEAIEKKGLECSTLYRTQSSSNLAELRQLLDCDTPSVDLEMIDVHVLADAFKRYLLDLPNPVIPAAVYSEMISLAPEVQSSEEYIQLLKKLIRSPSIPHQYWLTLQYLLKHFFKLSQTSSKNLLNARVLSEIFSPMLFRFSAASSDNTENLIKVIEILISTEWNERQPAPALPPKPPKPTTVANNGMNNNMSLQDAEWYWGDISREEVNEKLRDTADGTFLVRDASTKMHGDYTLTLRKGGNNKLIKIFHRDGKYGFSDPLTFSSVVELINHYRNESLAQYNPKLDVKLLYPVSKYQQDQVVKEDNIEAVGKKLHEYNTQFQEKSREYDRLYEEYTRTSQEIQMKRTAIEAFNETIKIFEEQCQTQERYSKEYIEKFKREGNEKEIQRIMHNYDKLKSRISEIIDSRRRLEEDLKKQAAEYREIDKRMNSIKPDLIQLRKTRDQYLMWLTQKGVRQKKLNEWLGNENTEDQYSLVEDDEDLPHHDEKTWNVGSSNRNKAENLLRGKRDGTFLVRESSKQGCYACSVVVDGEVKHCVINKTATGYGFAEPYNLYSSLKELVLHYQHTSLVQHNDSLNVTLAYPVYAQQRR
PI3K p110 beta/p85 alpha, sequence (P42338 whole entry, canonical isoform): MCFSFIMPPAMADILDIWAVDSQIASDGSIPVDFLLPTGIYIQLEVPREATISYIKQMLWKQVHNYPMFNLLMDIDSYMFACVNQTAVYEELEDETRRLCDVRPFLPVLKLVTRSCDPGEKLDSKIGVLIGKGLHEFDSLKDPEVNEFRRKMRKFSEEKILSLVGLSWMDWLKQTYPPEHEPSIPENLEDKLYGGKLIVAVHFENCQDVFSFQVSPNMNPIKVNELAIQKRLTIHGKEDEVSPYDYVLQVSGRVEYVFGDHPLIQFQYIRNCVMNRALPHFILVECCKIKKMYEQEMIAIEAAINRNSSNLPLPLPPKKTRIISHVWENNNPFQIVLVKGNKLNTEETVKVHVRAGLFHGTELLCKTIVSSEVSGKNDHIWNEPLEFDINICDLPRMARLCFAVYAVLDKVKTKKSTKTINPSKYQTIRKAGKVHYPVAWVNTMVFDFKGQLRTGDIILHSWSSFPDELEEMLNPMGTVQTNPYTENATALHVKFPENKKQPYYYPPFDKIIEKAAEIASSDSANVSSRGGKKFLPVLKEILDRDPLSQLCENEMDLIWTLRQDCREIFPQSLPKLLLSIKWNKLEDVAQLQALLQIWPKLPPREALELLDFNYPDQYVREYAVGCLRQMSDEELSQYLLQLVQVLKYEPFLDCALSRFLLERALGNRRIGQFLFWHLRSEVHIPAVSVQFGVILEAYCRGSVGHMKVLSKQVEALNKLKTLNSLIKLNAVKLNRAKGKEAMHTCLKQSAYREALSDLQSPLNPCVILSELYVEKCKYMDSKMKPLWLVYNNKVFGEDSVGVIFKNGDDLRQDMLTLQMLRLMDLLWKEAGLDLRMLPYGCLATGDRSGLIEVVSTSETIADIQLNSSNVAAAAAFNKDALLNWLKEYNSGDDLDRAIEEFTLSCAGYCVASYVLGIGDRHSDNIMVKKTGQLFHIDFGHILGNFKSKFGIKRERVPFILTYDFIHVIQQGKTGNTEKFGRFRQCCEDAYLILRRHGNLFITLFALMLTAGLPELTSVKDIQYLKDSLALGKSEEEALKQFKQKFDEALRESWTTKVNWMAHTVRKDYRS
PI3-kinase p110-alpha/p85-alpha, sequence (P27986 whole entry): as the sequence (P27986 whole entry, canonical isoform) above
PI3-kinase p110-alpha/p85-alpha, sequence (P42336 whole entry): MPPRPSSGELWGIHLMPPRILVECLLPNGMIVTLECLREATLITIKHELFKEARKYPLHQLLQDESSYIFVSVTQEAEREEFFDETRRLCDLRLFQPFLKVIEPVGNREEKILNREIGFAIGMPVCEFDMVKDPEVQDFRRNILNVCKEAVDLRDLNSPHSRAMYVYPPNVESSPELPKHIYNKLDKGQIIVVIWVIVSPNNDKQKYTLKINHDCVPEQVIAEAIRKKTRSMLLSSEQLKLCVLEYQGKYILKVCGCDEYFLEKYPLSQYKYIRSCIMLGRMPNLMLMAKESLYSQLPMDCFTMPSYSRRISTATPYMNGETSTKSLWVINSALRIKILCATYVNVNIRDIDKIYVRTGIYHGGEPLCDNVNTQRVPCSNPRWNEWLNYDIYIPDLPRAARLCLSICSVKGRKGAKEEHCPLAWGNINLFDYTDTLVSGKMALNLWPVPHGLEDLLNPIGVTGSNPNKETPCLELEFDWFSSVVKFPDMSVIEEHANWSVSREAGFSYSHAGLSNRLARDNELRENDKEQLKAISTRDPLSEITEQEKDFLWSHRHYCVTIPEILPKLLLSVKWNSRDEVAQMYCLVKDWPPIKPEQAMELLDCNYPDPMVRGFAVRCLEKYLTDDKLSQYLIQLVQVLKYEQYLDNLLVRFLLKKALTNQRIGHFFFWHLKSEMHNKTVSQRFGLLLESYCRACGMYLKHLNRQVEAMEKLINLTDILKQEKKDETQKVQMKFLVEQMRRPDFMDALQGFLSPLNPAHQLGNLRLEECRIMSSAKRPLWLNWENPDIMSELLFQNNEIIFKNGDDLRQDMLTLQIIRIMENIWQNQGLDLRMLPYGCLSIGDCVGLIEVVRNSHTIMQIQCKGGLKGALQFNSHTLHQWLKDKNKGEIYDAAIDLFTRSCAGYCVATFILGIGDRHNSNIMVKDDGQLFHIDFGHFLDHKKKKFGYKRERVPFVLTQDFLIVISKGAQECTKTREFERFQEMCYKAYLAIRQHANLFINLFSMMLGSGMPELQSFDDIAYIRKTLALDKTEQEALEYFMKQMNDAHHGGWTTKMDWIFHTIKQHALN

`NC(=O)C[C@H]1CCc2sc3ncnc(O[C@H]4CC[C@H](N5CCOCC5)CC4)c3c21`: the IC50 in data set [1] was 0.0075 µM.

With `Cc1csc2nc([C@H](C)Nc3ncnc4[nH]cnc34)c(-c3cccc(F)c3)c(=O)n12` [DEZAPELISIB], the IC50 at PI3K p110 beta/p85 alpha worked out at 3.75 µM; in data set [2] it was 2.3 µM.

With `Fc1ccc2[nH]ccc2c1-c1nc(N2CCOCC2)c2sc(CN3CCN(CC4CC4)CC3)cc2n1`, the Ratio IC50 in the data set listed under Homo sapiens [3], in the data set listed under Homo sapiens [4] and in the data set filed under Homo sapiens [6] was more than 72 each time. In addition, the IC50 was 1.08 µM on PI3K p110 beta/p85 alpha, 2.3 µM in data set [5] and more than 10 µM in data set [2].

In the case of `N#Cc1ccc(-c2cnc3ccc(-c4ccc(C(=O)N5CCOCC5)cc4)cn23)cc1` [TINODASERTIB], in data set [7], the half-life is 25 h.

In data set [1], `CC[C@@H]1[C@H](F)C(=O)N[C@@H]1COc1cccc2cc(C(N)=O)c(OC)cc12` registered an IC50 of 0.0002 µM.

On to `CC(C)Oc1ccc(-c2nn([C@@H](C)c3oc4ccc(F)cc4c(=O)c3-c3cccc(F)c3)c3ncnc(N)c23)cc1F` [UMBRALISIB], for which the IC50 at PI3K p110 beta/p85 alpha is more than 10 µM; in data set [5] it was more than 10 µM; in data set [2], 1.4 µM.

With `Cc1cc(Nc2cc(N)ncn2)c(=O)n2c1C(=O)NC21CCCCC1.Cl` [TOMIVOSERTIB HYDROCHLORIDE], the inhibition in data set [8] was found to be 85%. Besides, the half-life in data set [7] is 11 h.

Regarding `NC(=O)c1nc(-c2c(F)cccc2Cl)oc1Nc1ccc(C(=O)N2CCOCC2)cc1`, the 50% inhibitory concentration (IC50) came to 0.041 µM in [9], 0.023 µM in data set [10] and 0.0006 µM in data set [11].
